The values that follow come from US20220304945A1, “METHODS OF TREATING METABOLIC SYNDROME RELATED CONDITIONS USING RETINOIC ACID RECEPTOR AGONISTS” (Cornell University, priority 2014, published 2022).

“Also recorded” adds a separate entry of the source.

Common to all, as to assay type: in vivo, mouse
In one assay the test system is HF-fed C57/BL6 mice. Put plainly: Hepatic steatosis: H and E and oil red O staining of liver, HF-fed mice. The note with it: HF diet mice 4 months; vs HF-vehicle. An excerpt: (§1) Mice, diet, and drug treatment. WT male C57/BL6 male mice were maintained on either a standard laboratory chow-fed diet (CFD) with 13% kcal fat, (diet #5053, Lab Diet, Inc, St. Louis, Mo.) or a high fat, western style diet (HFD) with 60% kcals from fat, (diet #58126, Lab Diet, Inc., St. Louis, Mo.) for 4 months. One month after the start of the high fat diet treatment, the high fat diet group was further split into 2 groups for 3 months: i) high fat diet and the drinking water containing 1% DMSO; ii) high fat diet and the drinking water containing 1.5 mg/100 ml AC261066, a specific RARβ agonist. Then mice were sacrificed by cervical dislocation. Blood and various tissue samples were harvested.
Hematoxylin and Eosin Staining. At sacrifice, fresh mouse liver samples were fixed in 4% formaldehyde solution for 24 hr and embedded in paraffin blocks. Liver paraffin sections were cut 5 microns thick and mounted on glass slides and stained with hematoxylin and eosin (H and E) using standard protocols.
Combined oil red O and Immunofluorescence. Staining. Fresh mouse liver samples were embedded in optimal cutting temperature (OCT) medium and immediately frozen to −70 centigrade. Cryosections were then fixed in 4% formaldehyde for 1 hr at room temp. Slides were then rinsed three times in deionized water (dH2O) for 30 s, followed by treatment with 0.5% Triton X-100 in PBS for 5 min. Sections were then washed three times with PBS for 5 min. Samples were with incubated 2% bovine serum albumin (BSA) for 30 min at room temperature to block for unspecific antibody binding. Following blocking, sections were washed three times in PBS and incubated with mouse monoclonal antibody against α-SMA (1:500) (Dako, Inc) for 24 h at 4° C. After 24 h sections were washed three times in PB and incubated with Alexa-Flour-488 anti-mouse secondary anti-body (1:500) (Invitrogen, Inc) for 30 min at room temperature. Sections were then washed three times in PBS and incubated with working strength oil-red O solution for 30 minutes at room temperature. Sections were then rinsed for 30 minutes under running tap water and cover-slipped with Vectashield hard mount plus DAPI (Vector Labs, Inc).

The nature of assay [1]: HPLC analysis of serum and liver retinoids, HF-fed mice. Conditions: for liver retinyl palmitate and retinol compared to controls: HF diet mice vs control diet.
Text: as §1
(§2) Analysis of serum and liver retinoids. The frozen liver tissue samples (˜100 mg) were homogenized in 500 μl cold phosphate-buffered saline (PBS). In addition, 100 μl serum was diluted in cold PBS to total volume of 500 μl. Retinyl acetate was added to each sample before the retinoid extraction for the calculation of extraction efficiency. The retinoids were extracted into 350 μl of organic solution (acetonitrile/butanol, 50:50, v/v) in the dark. The high performance liquid chromatography (HPLC) was performed using a Waters Millennium system (Waters). Each sample (100 μl of the 350 μl) was loaded onto an analytical 5-μm reverse phase C18 column (Vydac, Hesperia, Calif.) and eluted at a flow rate of 1.5 ml/min. Two mobile phase gradient systems were used. Retinoids were identified by HPLC based on two criteria: an exact match of the retention times of unknown peaks with those of authentic retinoid standards and identical UV light spectra (220-400 nm) of unknowns against spectra from authentic retinoid standards during HPLC by the use of a photodiode array detector. The amounts of retinoids were calculated from the areas under the peaks detected at the wave-length of 325 nm. The levels of retinol and retinyl esters were normalized to the tissue weight.
as §2, with “Millenium” for “Millennium”

The nature of assay [2]: Serum triglyceride and cholesterol level measurements, HFD-fed mice (Examples 11-15). The note with it: mice fed HFD 4 months, drug in drinking water (AC261066 1.5 mg/100 ml). On the procedure: AC261066(Lund et al., Discovery of a potent, orally available, and isoform-selective retinoic acid beta2 receptor agonist. J Med Chem. 2005; 48(24):7517-9) and CD1530 (Thacher et al. Therapeutic applications for ligands of retinoid receptors. Curr Pharm Des. 2000; 6(1):25-58) was dissolved in dimethyl sulfoxide (DMSO) at the concentration of 1.5 mg/ml for AC261066 and 2.5 mg/ml for CD1530, and diluted in the drinking water for mice to the final concentration of 1.5 mg/100 ml and 2.5 mg/100 ml, respectively.
(§3) WT male C57/BL6 male mice were maintained on either a standard laboratory chow-fed diet (Con) with 13% kcal fat, (diet #5053, Lab Diet, Inc, St. Louis, Mo.) or a high fat, western style diet (HFD) with 45% kcals from fat, (diet #58126, Lab Diet, Inc., St. Louis, Mo.) for 4 months. One month after the start of the HFD treatment, the HFD group was further split into 3 groups for 3 months: i) HFD and the drinking water containing 1% DMSO; ii) high fat diet (HFD) and drinking water containing 1.5 mg/100 ml AC261066, a specific RARβ agonist in 1% DMSO or iii) HFD and drinking water containing 1.5 mg/100 ml CD1530, a specific RARγ agonist in 1% DMSO. Then mice were sacrificed by cervical dislocation. Blood and various tissue samples were harvested.
The analysis of serum triglyceride levels was carried out using a bichromatic assay at the Laboratory of Comparative Pathology of the Memorial Sloan-Kettering Cancer Center. Chow-fed diet (Con) n=4; high fat diet (HFD) n=4; high fat diet (HFD)+AC261066 n=4; and high fat diet (HFD)+CD1530, n=4.

The test system of assay [3] is srebp1-c, fas, dgat1, fgf21, ppar-γ, sirt1, ppar-α, srebp-2, hmgcr, pepck mRNA. Put plainly: Q-RT-PCR of hepatic lipogenic, cholesterol and gluconeogenic genes, HFD-fed mice (Example 15). The method, then:
as §3
Total RNA was extracted from mouse tissues using TRIzol reagent (Life technologies) and (1 μg) was used to synthesize cDNA. cDNA synthesis was performed at 42° C. for 1 h in a final volume of 20 μl using qScript (Quanta, MD). Q-RTPCR was performed as previously described (15). Primers for gene expression used were as follows: […]

With `CCCCOCCOc1nc(-c2ccc(C(=O)O)c(F)c2)sc1C` [AC261066], in the assay on HF-fed C57/BL6 mice, the “hepatic lipid accumulation (oil red O)” value is on record as “marked diminished”; the “hepatic steatosis / hepatocyte lipid accumulation (H and E)” value was “diminished; also recorded: prevent; also recorded: marked decreased”. For the same compound, in assay [1] (HF diet mice), the “retinyl palmitate in liver, higher than HF-vehicle treated mice” value was found to be 55% and the “vitamin A deficiency (VA depletion) in liver” value is “partially reverses”. Besides, the “liver retinyl palmitate and retinol compared to controls” value in assay [1] was “significantly lowered”. In addition, in assay [2], the serum cholesterol result is “greatly reduces; also recorded: significantly lower” and the serum triglycerides entry is recorded as “greatly reduces; also recorded: significantly lower”. Further, in assay [3], the “hepatic gene expression of pepck” value is “not affected”; the “hepatic mRNA levels of lipogenic proteins srebp1-c, fas, dgat1, fgf21, ppar-γ” value was “greatly reduces; also recorded: significantly reduced”; the “hepatic mRNA levels of sirt1 and ppar-α” value is listed as “prevented a large decrease”; the “hepatic mRNA levels of srebp-2 and hmgcr” value is “significantly reduced”.

In the case of `O=C(O)c1ccc(-c2ccc3cc(O)c(C45CC6CC(CC(C6)C4)C5)cc3c2)cc1` [CD1530], in the assay on HF-fed C57/BL6 mice, the “hepatic lipid accumulation (oil red O)” value is reported as “not observed; also recorded: no evidence decreased”; the “hepatic steatosis / hepatocyte lipid accumulation (H and E)” value was “no decrease”. Also, the “retinyl palmitate in liver, lower than HF-vehicle treated mice” value in assay [1] (HF diet mice) is listed as around 48%. In addition, the “liver retinyl palmitate and retinol compared to controls” value in assay [1] was “significantly lowered”. Further, in assay [2], the serum cholesterol result was “no decrease” and the serum triglycerides result was “no decrease”. Moreover, in assay [3], the “hepatic gene expression of pepck” value was “not affected”; the “hepatic mRNA levels of srebp-2 and hmgcr” value is given as “not observed”.
